Experiments:
HeLa cells (EGFR+) = experiment: Cell viability (MTS) assay, HeLa cells; type: cell-based, human; details: co-administered with SO1861 + dianthin-EGF, 500 nM PAMAM (native, thiolated, PEGylated) or chloroquine, 667 nM dendron
Procedure: (§1) After treatment the cells were incubated for 72 hr at 37° C. before the cell viability was determined by a MTS-assay, performed according to the manufacturer's instruction (CellTiter 96@AQueous One Solution Cell Proliferation Assay, Promega). Briefly, the MTS solution was diluted 20× in DMEM without phenol red (PAN-Biotech GmbH) supplemented with 10% FBS (PAN-Biotech GmbH). The cells were washed once with 200 μL PBS per well, after which 100 μL diluted MTS solution was added per well. The plate was incubated for approximately 20-30 minutes at 37° C. Subsequently, the optical density at 492 nm was measured on a Thermo Scientific Multiskan FC plate reader (Thermo Scientific). For quantification the background signal of ‘medium only’ wells was subtracted from all other wells, before the ratio of untreated/treated cells was calculated, by dividing the background corrected signal of untreated wells over the background corrected signal of the treated wells.

[1] = system: SK-BR-3, JIMT-1, MDA-MB-468, A431, CaSki, HeLa, A2058; experiment: Control treatments, relative cell viability on various cancer cell lines; type: cell-based, human; details: toxins up to 100.000 pM
Procedure: as §1

[2] = pH dependent hydrolysis of the hydrazone bond (MALDI-TOF-MS); type: physicochemical; details: HCl solution at pH 3

CCN(CC)CCCC(C)Nc1ccnc2cc(Cl)ccc12 (stereo not drawn) [chloroquine]
effect on SO1861-mediated endosomal escape of the targeted toxin and cell killing (HeLa cells (EGFR+)): inhibit the SO1861-mediated endosomal escape

saporin
influence on cell viability [1]: do not or hardly have any influence on cell viability

CC(=O)OC1C(C)OC(OC2C(C)OC(OC(=O)[C@]34CCC(C)(C)CC3C3=CCC5[C@@]6(C)CC[C@H](OC7OC(C(=O)O)C(O)C(OC8OCC(O)C(O)C8O)C7OC7OC(CO)C(O)C(O)C7O)[C@@](C)(/C=N/NC(=O)CCCCCN7C(=O)C=CC7=O)C6CC[C@@]5(C)[C@]3(C)C[C@H]4O)C(OC3OC(C)C(OC4OCC(O)C(OC5OC(CO)C(O)C(O)C5O)C4O)C(O)C3O)C2O)C(O)C1OC1OCC(O)C(O)C1O (stereo partly drawn) [SO1861-EMCH]
hydrolysis of the hydrazone bond [2]: the hydrazone bond is responsive towards hydrolysis and gets cleaved
